Results: ChEMBL document CHEMBL1145902, “Design and synthesis of a potent and selective triazolone-based peroxisome proliferator-activated receptor alpha agonist” (J Med Chem, 2003)
pEC50, pIC50: −log10 of the molar value. Active and inactive are the calls of the source. No cut-off for these calls is given here.

Legend:
[1] = biological target: T1, Peroxisome proliferator-activated receptor alpha (Homo sapiens, UniProt Q07869); type: functional
T1 sequence (Q07869 whole entry): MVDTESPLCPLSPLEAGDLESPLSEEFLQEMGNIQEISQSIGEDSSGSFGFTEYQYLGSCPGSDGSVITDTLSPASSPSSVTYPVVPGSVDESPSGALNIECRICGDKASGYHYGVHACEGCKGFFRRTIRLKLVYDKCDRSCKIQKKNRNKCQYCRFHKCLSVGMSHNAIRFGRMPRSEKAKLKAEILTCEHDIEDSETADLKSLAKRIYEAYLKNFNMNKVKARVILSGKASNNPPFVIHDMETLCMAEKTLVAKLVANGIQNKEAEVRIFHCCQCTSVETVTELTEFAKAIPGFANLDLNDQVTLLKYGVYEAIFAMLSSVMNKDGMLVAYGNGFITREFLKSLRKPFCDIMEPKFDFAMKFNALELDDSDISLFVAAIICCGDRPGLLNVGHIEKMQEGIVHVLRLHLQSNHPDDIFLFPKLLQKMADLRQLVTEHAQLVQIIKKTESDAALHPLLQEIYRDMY

[2] = biological target: T2, Peroxisome proliferator-activated receptor gamma (Homo sapiens, UniProt P37231); type: functional
T2 sequence (P37231 whole entry): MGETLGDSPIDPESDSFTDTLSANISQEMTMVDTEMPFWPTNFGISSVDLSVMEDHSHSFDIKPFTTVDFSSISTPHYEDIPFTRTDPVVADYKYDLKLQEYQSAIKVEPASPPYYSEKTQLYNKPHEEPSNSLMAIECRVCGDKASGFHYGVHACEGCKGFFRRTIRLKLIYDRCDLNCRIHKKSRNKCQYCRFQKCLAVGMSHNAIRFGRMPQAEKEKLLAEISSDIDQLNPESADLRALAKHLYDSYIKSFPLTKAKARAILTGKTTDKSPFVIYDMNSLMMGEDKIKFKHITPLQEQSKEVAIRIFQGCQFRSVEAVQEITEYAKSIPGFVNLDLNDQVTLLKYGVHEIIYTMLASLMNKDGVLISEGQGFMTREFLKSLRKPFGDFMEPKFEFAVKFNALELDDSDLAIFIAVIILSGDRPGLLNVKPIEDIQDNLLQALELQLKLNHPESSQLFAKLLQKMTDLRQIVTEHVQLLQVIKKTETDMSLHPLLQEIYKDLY

[3] = biological target: T3, Peroxisome proliferator-activated receptor delta (Homo sapiens, UniProt Q03181)
T3 sequence (Q03181 whole entry): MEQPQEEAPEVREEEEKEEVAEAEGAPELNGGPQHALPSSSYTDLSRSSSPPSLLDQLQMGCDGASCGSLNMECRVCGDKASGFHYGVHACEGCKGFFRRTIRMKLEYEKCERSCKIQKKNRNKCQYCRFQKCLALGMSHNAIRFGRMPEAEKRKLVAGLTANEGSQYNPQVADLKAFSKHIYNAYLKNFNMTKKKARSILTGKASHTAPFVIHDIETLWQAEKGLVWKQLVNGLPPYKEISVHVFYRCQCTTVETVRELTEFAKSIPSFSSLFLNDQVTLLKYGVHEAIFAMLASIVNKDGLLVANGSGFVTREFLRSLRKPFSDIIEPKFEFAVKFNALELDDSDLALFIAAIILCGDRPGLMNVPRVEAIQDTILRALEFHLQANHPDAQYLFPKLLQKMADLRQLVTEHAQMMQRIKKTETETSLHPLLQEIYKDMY

[4] = biological target: T1, Peroxisome proliferator-activated receptor alpha
Mus musculus [5] = species: Mus musculus; type: functional
Mus musculus [6] = species: Mus musculus; assay: animal or person; type: functional
Mus musculus [7] = species: Mus musculus; assay: animal or person; type: functional; remark: listed apart in the source
Mus musculus [8] = species: Mus musculus; assay: animal or person; type: functional; settings: Serum
[9] = biological target: T1, Peroxisome proliferator-activated receptor alpha; type: functional; remark: listed apart in the source
[10] = biological target: T4, Peroxisome proliferator-activated receptor gamma (Homo sapiens) (UniProt P37231)
T4 sequence (whole entry): T2 sequence (P37231 whole entry)

[11] = biological target: T5, Peroxisome proliferator-activated receptor delta (Homo sapiens) (UniProt Q03181)
T5 sequence (whole entry): T3 sequence (Q03181 whole entry)

[12] = biological target: T5, Peroxisome proliferator-activated receptor delta (Homo sapiens); remark: listed apart in the source

Row | Compound | pEC50 [1] | pIC50 [3] | pIC50 [4] | also measured
1 | CCCCCCn1c(CCc2ccc(OC(C)(C)C(=O)O)cc2)nn(Cc2cccc(OC)c2)c1=O | 5.66 |  |  | pEC50 [2]: 5.59
2 | CCCn1c(CCCc2ccc(OC(C)(C)C(=O)O)cc2)nn(Cc2cccc(OC)c2)c1=O | 7.51 | 5.70 | 7.72 | 
3 | Cc1ccc(Cn2nc(CCCc3ccc(OC(C)(C)C(=O)O)cc3)nc2O)cc1 [LY-518674] |  | 5.42 |  | Increase (Mus musculus [5]): 210%; ED50 (Mus musculus [6]): 0.3 mg/kg; ED50 (Mus musculus [7]): 0.1 mg/kg
4 | Cc1ccc(Cn2nc(CCCc3ccc(OC(C)(C)C(=O)O)cc3)n(CCO)c2=O)cc1 | 7.06 | 5.39 | 7.57 | 
5 | CC(C)OC(=O)C(C)(C)Oc1ccc(C(=O)c2ccc(Cl)cc2)cc1 [FENOFIBRATE] |  |  |  | Increase (Mus musculus [5]): 120%; ED50 (Mus musculus [6]): 110 mg/kg; ED50 (Mus musculus [8]): 79 mg/kg
6 | CC(C)(Oc1ccc(C(=O)c2ccc(Cl)cc2)cc1)C(=O)O [FENOFIBRIC ACID] |  |  | 4.62 | pEC50 [9]: 4.89; NB [10]: inactive; NB [11]: inactive
7 | CCCn1c(CCc2ccc(OC(C)(C)C(=O)O)cc2)nn(Cc2ccc(C)cc2)c1=O | 5.55 |  |  | pEC50 [2]: 5.54
8 | Cc1ccc(Cn2nc(CCCc3ccc(OC(C)(C)C(=O)O)cc3)n(CC(=O)O)c2=O)cc1 | 5.57 |  | 6.02 | NB [12]: inactive
9 | CCCn1c(CCCc2ccc(OC(C)(C)C(=O)O)cc2)nn(C(C)c2ccccc2)c1=O (configuration not stated) | 6.66 | 5.82 | 6.66 | 
